From patent publication US20170129916A1, “NOVEL BETULINIC PROLINE IMIDAZOLE DERIVATIVES AS HIV INHIBITORS” (HETERO RESEARCH FOUNDATION, priority 2014, published 2017)

What was measured:
[1] = system: HIV-1 strains, for e.g., 92HT599; test: Antiviral activity: p24 estimation in MT-2 cells infected with HIV-1; format: cell-based; conditions: Human immunodeficiency virus 1, MT2, MT-2 cells infected with HIV-1, p24, ~96 hours
Summary of the method: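 MT-2 cells infected with HIV-1 (e.g. 92HT599), plated at 30,000 cells/well with compound (DMSO ≤1%) and incubated ~96 h. Supernatant p24 quantified by kit; percent inhibition relative to vehicle controls.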

Experimental for in vitro: On day 1 calculate the number of cells required for the assay and seed 3×10^4 cells in 200 μl per well. Weigh the compound and dissolve it in DMSO to get 10 mM stock which is further diluted to 3 mM and 1 mM. The drugs from these stocks were added to plate to get final concentration of 100 μM, 30 μM and 10 μM. […] Incubate for 4 days in 5% CO2 incubator at 37° C. On day 4, 100 μl of medium was removed from each well without disturbing the cells. Add 10 μl of MTT reagent and incubate for 4 hours at 5% CO2 incubator at 37° C. for formation of crystals. Add 200 μl of 0.1N acidic isopropanol to dissolve the crystals and read the plate at 590 nm.

Row | Compound | viability at 4 days, 10 μM (in vitro) | viability at 4 days, 30 μM (in vitro) | viability at 4 days, 100 μM (in vitro) | inhibition at 0.1 µM [1] | inhibition at 1 µM [1] | viability at 4 days, 0.1 nM (in vitro) | viability at 4 days, 1 nM (in vitro)
1 | C=C(C)[C@@H]1CC[C@]2(C(=O)N3CCC[C@H]3c3ncc(-c4ccc(OCC)cc4)[nH]3)CC[C@]3(C)[C@H](CC[C@@H]4[C@@]5(C)CC[C@H](OC(=O)[C@H]6C[C@@H](C(=O)O)C6(C)C)C(C)(C)[C@@H]5CC[C@]43C)[C@@H]12 [Compound 5, (1R,3S)-3-((((1R,3aS,5aR,5bR,7aR,9S,11aR,11bR,13aR,13bR)-3a-((S)-2-(5-(4-ethoxyphenyl)-1H-imidazol-2-yl)pyrrolidine-1-carbonyl)-5a,5b,8,8,11a-pentamethyl-1-(prop-1-en-2-yl)icosahydro-1H-cyclopenta[a]chrysen-9-yl)oxy)carbonyl)-2,2-dimethylcyclobutane-1-carboxylic acid] | 100% | 100% | 98% | 0% | 100% | – | –
2 | C=C(C)[C@@H]1CC[C@]2(C(=O)N3CCC[C@H]3c3nc(-c4ccc(OC)c(F)c4)c[nH]3)CC[C@]3(C)[C@H](CC[C@@H]4[C@@]5(C)CC[C@H](OC(=O)[C@H]6C[C@@H](C(=O)O)C6(C)C)C(C)(C)[C@@H]5CC[C@]43C)[C@@H]12 [Compound 25, (1R,3S)-3-((((1R,3aS,5aR,5bR,7aR,9S,11aR,11bR,13aR,13bR)-3a-((S)-2-(4-(3-fluoro-4-methoxyphenyl)-1H-imidazol-2-yl)pyrrolidine-1-carbonyl)-5a,5b,8,8,11a-pentamethyl-1-(prop-1-en-2-yl)icosahydro-1H-cyclopenta[a]chrysen-9-yl)oxy)carbonyl)-2,2-dimethylcyclobutane-1-carboxylic acid] | 65% | 32% | 11% | 89% | 99% | – | –
3 | C=C(C)[C@@H]1CC[C@]2(C(=O)N3CCC[C@H]3c3ncc(-c4ccc(C)c(F)c4)[nH]3)CC[C@]3(C)[C@H](CC[C@@H]4[C@@]5(C)CC[C@H](OC(=O)CC(C)(C)C(=O)O)C(C)(C)[C@@H]5CC[C@]43C)[C@@H]12 [Compound 40] | 80% | 48% | 25% | 29% | 99% | – | –
4 | CC(C)(CC(=O)O[C@H]1CC[C@]2(C)[C@H]3CC[C@@H]4[C@H]5[C@H](C(C)(O)CO)CC[C@]5(C(=O)N5CCC[C@@H]5c5nc(-c6ccccc6)no5)CC[C@@]4(C)[C@]3(C)CC[C@H]2C1(C)C)C(=O)O (stereo partly drawn) [Compound 42, 4-(((1R,3aS,5aR,5bR,7aR,9S,11aR,11bR,13aR,13bS)-1-(1,2-dihydroxypropan-2-yl)-5a,5b,8,8,11a-pentamethyl-3a-((R)-2-(3-phenyl-1,2,4-oxadiazol-5-yl)pyrrolidine-1-carbonyl)icosahydro-1H-cyclopenta[a]chrysen-9-yl)oxy)-2,2-dimethyl-4-oxobutanoic acid] | – | – | – | 63% | 73% | 94% | 94%
5 | COCCO[C@@H]1C[C@@H](c2nc(-c3cccc(F)c3)c[nH]2)N(C(=O)[C@]23CC[C@@H](C4(C)CC4)[C@@H]2[C@H]2CC[C@@H]4[C@@]5(C)CC[C@H](OC(=O)[C@H]6C[C@@H](C(=O)O)C6(C)C)C(C)(C)[C@@H]5CC[C@@]4(C)[C@]2(C)CC3)C1 [Compound 54, (1R,3S)-3-((((1R,3aS,5aR,5bR,7aR,9S,11aR,11bR,13aR,13bR)-3a-((2S,4R)-2-(4-(3-fluorophenyl)-1H-imidazol-2-yl)-4-(2-methoxyethoxy)pyrrolidine-1-carbonyl)-5a,5b,8,8,11a-pentamethyl-1-(1-methylcyclopropyl)icosahydro-1H-cyclopenta[a]chrysen-9-yl)oxy)carbonyl)-2,2-dimethylcyclobutane-1-carboxylic acid] | 49% | 16% | 6% | 13% | 93% | – | –
